Source: patent US9169247B2, “Tetrahydro-beta-carboline derivatives, synthesis and use thereof” (Southern Research Institute, priority 2009, dated 2015)
“Also recorded” adds a separate entry of the source.

Columns and labels:
cGMP phosphodiesterase = cGMP phosphodiesterase activity in whole cell lysates (fluorescence polarization); format: biochemical, human; conditions: lysates from MDA-MB-231 cells treated for 18 hours; FIG. 2
Method: FIG. 2 illustrates cGMP phosphodiesterase inhibitory activity of compound 2f. Whole cell lysates from human MDA-MB-231 breast tumor cells treated for 18 hours with compound 2f were assayed for cGMP phosphodiesterase activity using a fluorescence polarization assay (Molecular Devices Inc).

[1] = system: human Caki-1 renal tumor mouse xenograft; experiment: Caki-1 renal tumor mouse xenograft model; format: in vivo; conditions: 10 mg/kg one time per day for 22 days; FIG. 3B
Method: FIGS. 3A-B illustrate the anticancer activity of compound 2j. […] The cells with treated for 72 hours prior to measuring cell viability using the Cell Titer Glo assay (Promega Corp.). […] Tumor bearing mice were treated at a dose of 10 mg/kg one time per day for 22 days.

Compound | cGMP PDE activity in lysates (cGMP phosphodiesterase) | in vivo tumor growth [1]
COC(=O)[C@H]1Cc2c([nH]c3ccccc23)[C@H](c2cc(OC)ccc2OC)N1C(=O)CCl [Compound 2f, Methyl (1S,3R)-1-(2,5-dimethoxyphenyl)-2-(2-chloroacetyl)-2,3,4,9-tetrahydro-1H-β-carboline-3-carboxylate] | selectively inhibited | –
COC(=O)[C@H]1Cc2c([nH]c3ccccc23)[C@H](c2ccc(Cl)cc2Cl)N1C(=O)CCl [Compound 2j, (1S,3R) Methyl 1-(2,4-dichlorophenyl)-2-(2-chloroacetyl)-2,3,4,9-tetrahydro-1H-β-carboline-3-carboxylate] | – | strongly suppressed tumor growth; also recorded: strong in vivo antitumor activity
